Test results as given in patent publication US20230086007A1, “USE OF DENATONIUM BENZOATE AS A SEED TREATMENT FOR CROPS AS BIRD AND/OR INSECT REPELLENT” (KWS SAAT SE & Co. KGaA, priority 2020, published 2023).
Several values for one entry are separate records, joined by “and”; a condition that tells them apart may be missing. Equal values may be shown once.

Assays:
[1] = system: corn seeds; assay: Phytotoxicity: cold test germination rate (CT) of treated corn seeds; conditions: for ΔCT: vs no Bitrex
Experimental: In order to evaluate the phytotoxicity of different corn seed treatments, safety tests were conducted. Germination rates of corn seeds treated with various concentrations of denatonium benzoate (Bitrex®) [in g per unit, where 1 unit is 50.000 seeds] were counted after five days at 25° C. Cold test germination rates (CT) were counted after 7 days at 10° C. and 5 days at 25° C. The treatments were compared to untreated seeds.
KF=germination rates counted after 5 days at 25° C. and CT=cold test germination rates counted after 7 days at 10° C. and 5 days at 25° C.

[2] = LC-MS-MS determination of Bitrex in hybrid rye seedlings; format: in vivo
Experimental: Additional experiments in hybrid rye show also excellent systemic uptake and distribution of Bitrex. Seeds of a hybrid rye variety have been treated in application A with KintoPlus 150 ml/100 kg seeds and Bitrex 75 g/100 kg seeds and in application B with KintoPlus 150 ml/100 kg seeds and Bitrex 150 g/100 kg seeds. Seeds have been sown in longitudinal plots of 15 qm in four repetitions. 3 weeks after sowing seedlings have been harvested (40 plants per plot) and leaf material and root tissue have been analyzed using Liquid Chromatography with tandem mass spectrometry (LC-MS-MS) as described above.

[3] = system: wireworm of genus Agriotes; assay: Wireworm repellent pot assay on corn in climate chamber; format: in vivo; conditions: climate chamber 18° C. day/12° C. night; eighteen days after sowing
Experimental: The denatonium benzoate (Bitrex) was tested in concentrations of 0.5 g/unit (wherein 1 unit=50.000 seeds), 1 g/unit and 5 g/unit, either without any other plant protection product (variants 3 and 4) or with RedigoM (active ingredients 100 g/l Prothioconazole (PRO) and 20 g/l Metalaxyl (MTL); (variants 6-8). Sticker was always Sepiret 9290 red, whereby 30 ml/unit has been applied. Variant 1 is the negative control wherein no treatment of the seeds took place, variant 2 is another control only treated with the sticker. Variant 5 is RedigoM and sticker without Bitrex. Variants 9 and 10 serve as positive control. Beside RedigoM and the sticker, the seeds have been treated with either with Force 20 CS (active ingredient: tefluthrin (TEF); or with Poncho® 600 (active ingredient: clothianidin (CLO). Both Force 20 CS and Poncho® 600 are standard treatments against wireworm infestation. All testing were conducted on corn variety Amavit of KWS SAAT SE & Co. KGaA.
Testing has been repeated in climate chambers in order to ensure high humidity and moderate temperatures which results in optimal environmental condition for the wireworm. Thereby, a high level of insect pressure on the seeded corn should be simulated. […]
Eighteen days after sowing the plant biomass (Table 6) as well as seed damage (FIG. 4B; Table 6) were assessed.

[4] = corn Amavit, chemical no, Bitrex 0.2 g/u
[5] = corn Amavit, chemical no, Bitrex 0.5 g/u
[6] = corn Amavit, chemical no, Bitrex 1.0 g/u
[7] = corn Amavit, chemical no, Bitrex 2.0 g/u
[8] = corn Amavit, chemical no, Bitrex 5.0 g/u
[9] = corn Amavit, with MaximXL, Bitrex 0.2 g/u
[10] = corn Amavit, with MaximXL, Bitrex 0.5 g/u
[11] = corn Amavit, with MaximXL, Bitrex 1.0 g/u
[12] = corn Amavit, with MaximXL, Bitrex 2.0 g/u
[13] = corn Amavit, with MaximXL, Bitrex 5.0 g/u
[14] = corn Amavit, with RedigoM, Bitrex 0.2 g/u
[15] = corn Amavit, with RedigoM, Bitrex 0.5 g/u
[16] = corn Amavit, with RedigoM, Bitrex 1.0 g/u
[17] = corn Amavit, with RedigoM, Bitrex 2.0 g/u
[18] = corn Amavit, with RedigoM, Bitrex 5.0 g/u
[19] = corn KXB6432, chemical no, Bitrex 0.2 g/u
[20] = corn KXB6432, chemical no, Bitrex 0.5 g/u
[21] = corn KXB6432, chemical no, Bitrex 1.0 g/u
[22] = corn KXB6432, chemical no, Bitrex 2.0 g/u
[23] = corn KXB6432, chemical no, Bitrex 5.0 g/u
[24] = corn KXB6432, with MaximXL, Bitrex 0.2 g/u
[25] = corn KXB6432, with MaximXL, Bitrex 0.5 g/u
[26] = corn KXB6432, with MaximXL, Bitrex 1.0 g/u
[27] = corn KXB6432, with MaximXL, Bitrex 2.0 g/u
[28] = corn KXB6432, with MaximXL, Bitrex 5.0 g/u
[29] = corn KXB6432, with RedigoM, Bitrex 0.2 g/u
[30] = corn KXB6432, with RedigoM, Bitrex 0.5 g/u
[31] = corn KXB6432, with RedigoM, Bitrex 1.0 g/u
[32] = corn KXB6432, with RedigoM, Bitrex 2.0 g/u
[33] = corn KXB6432, with RedigoM, Bitrex 5.0 g/u
[34] = ø of varieties and chemicals, Bitrex 0.2 g/u
[35] = ø of varieties and chemicals, Bitrex 0.5 g/u
[36] = ø of varieties and chemicals, Bitrex 1.0 g/u
[37] = ø of varieties and chemicals, Bitrex 2.0 g/u
[38] = ø of varieties and chemicals, Bitrex 5.0 g/u
[39] = ø of varieties, chemical no, Bitrex 0.2 g/u
[40] = ø of varieties, chemical no, Bitrex 0.5 g/u
[41] = ø of varieties, chemical no, Bitrex 1.0 g/u
[42] = ø of varieties, chemical no, Bitrex 2.0 g/u
[43] = ø of varieties, chemical no, Bitrex 5.0 g/u
[44] = ø of varieties, with MaximXL, Bitrex 0.2 g/u
[45] = ø of varieties, with MaximXL, Bitrex 0.5 g/u
[46] = ø of varieties, with MaximXL, Bitrex 1.0 g/u
[47] = ø of varieties, with MaximXL, Bitrex 2.0 g/u
[48] = ø of varieties, with MaximXL, Bitrex 5.0 g/u
[49] = ø of varieties, with RedigoM, Bitrex 0.2 g/u
[50] = ø of varieties, with RedigoM, Bitrex 0.5 g/u
[51] = ø of varieties, with RedigoM, Bitrex 1.0 g/u
[52] = ø of varieties, with RedigoM, Bitrex 2.0 g/u
[53] = ø of varieties, with RedigoM, Bitrex 5.0 g/u

In the case of `CC[N+](CC)(CC(=O)Nc1c(C)cccc1C)Cc1ccccc1.O=C([O-])c1ccccc1` [Bitrex, N-Benzyl-2-(2,6-dimethylanilino)-N, N-diethyl-2-oxoethan-1-aminium benzoate], the “CT cold test germination rate, 7 days at 10° C. and 5 days at 25° C.” value (shortened to “CT cold test germination rate, 7 days”) [1, 4] is reported as 91.5%, the “CT cold test germination rate, 7 days” value [1, 5] is reported as 89.0% and the “CT cold test germination rate, 7 days” value [1, 6] is reported as 95.5%. The “CT cold test germination rate, 7 days” value [1, 7] was 93.0%, the “CT cold test germination rate, 7 days” value [1, 8] was 96.5% and the “CT cold test germination rate, 7 days” value [1, 9] was 98.0%. The “CT cold test germination rate, 7 days” value [1, 10] was 98.0%, the “CT cold test germination rate, 7 days” value [1, 11] was 97.0% and the “CT cold test germination rate, 7 days” value [1, 12] was 99.0%. The “CT cold test germination rate, 7 days” value [1, 13] was 99.0%, the “CT cold test germination rate, 7 days” value [1, 14] was 97.5% and the “CT cold test germination rate, 7 days” value [1, 15] was 99.0%. For the same compound, the “CT cold test germination rate, 7 days” value [1, 16] was 99.0%, the “CT cold test germination rate, 7 days” value [1, 17] was 95.5% and the “CT cold test germination rate, 7 days” value [1, 18] was 96.5%. The “CT cold test germination rate, 7 days” value [1, 19] was 98.0%, the “CT cold test germination rate, 7 days” value [1, 20] was 97.5% and the “CT cold test germination rate, 7 days” value [1, 21] was 97.0%. For the same compound, the “CT cold test germination rate, 7 days” value [1, 22] was 90.5%, the “CT cold test germination rate, 7 days” value [1, 23] was 90.5% and the “CT cold test germination rate, 7 days” value [1, 24] was 100.0%. For the same compound, the “CT cold test germination rate, 7 days” value [1, 25] was 99.5%, the “CT cold test germination rate, 7 days” value [1, 26] was 98.0% and the “CT cold test germination rate, 7 days” value [1, 27] was 96.5%. For the same compound, the “CT cold test germination rate, 7 days” value [1, 28] was 99.0%, the “CT cold test germination rate, 7 days” value [1, 29] was 97.0% and the “CT cold test germination rate, 7 days” value [1, 30] was 96.5%. For the same compound, the “CT cold test germination rate, 7 days” value [1, 31] was 99.5%, the “CT cold test germination rate, 7 days” value [1, 32] was 98.5% and the “CT cold test germination rate, 7 days” value [1, 33] was 96.5%. For the same compound, the ΔCT [1, 4] was 6.0%, the ΔCT [1, 5] was 3.5% and the ΔCT [1, 6] was 10.0%. The ΔCT [1, 7] was 7.5%, the ΔCT [1, 8] was 11.0% and the ΔCT [1, 9] was −2.0%. The ΔCT [1, 10] was −2.0%, the ΔCT [1, 11] was −3.0% and the ΔCT [1, 12] was −1.0%. For the same compound, the ΔCT [1, 13] was −1.0%, the ΔCT [1, 14] was 0.5% and the ΔCT [1, 15] was 2.0%. It also gave a ΔCT [1, 16] of 2.0%, a ΔCT [1, 17] of −1.5% and a ΔCT [1, 18] of −0.5%. For the same compound, the ΔCT [1, 19] was 5.5%, the ΔCT [1, 20] was 5.0% and the ΔCT [1, 21] was 4.5%. For the same compound, the ΔCT [1, 22] was −2.0%, the ΔCT [1, 23] was −2.0% and the ΔCT [1, 24] was 1.0%. The ΔCT [1, 25] was 0.5%, the ΔCT [1, 26] was −1.0% and the ΔCT [1, 27] was −2.5%. The ΔCT [1, 28] was 0.0%, the ΔCT [1, 29] was −0.5% and the ΔCT [1, 30] was −1.0%. It also gave a ΔCT [1, 31] of 2.0%, a ΔCT [1, 32] of 1.0% and a ΔCT [1, 33] of −1.0%. The ΔCT [1, 34] was 1.8%, the ΔCT [1, 35] was 1.3% and the ΔCT [1, 36] was 2.4%. The ΔCT [1, 37] was 0.3%, the ΔCT [1, 38] was 1.1% and the ΔCT [1, 39] was 5.8%. The ΔCT [1, 40] was 4.3%, the ΔCT [1, 41] was 7.2% and the ΔCT [1, 42] was 2.8%. For the same compound, the ΔCT [1, 43] was 4.5%, the ΔCT [1, 44] was −0.5% and the ΔCT [1, 45] was −0.7%. For the same compound, the ΔCT [1, 46] was −2.0%, the ΔCT [1, 47] was −1.8% and the ΔCT [1, 48] was −0.5%. The ΔCT [1, 49] was 0.0%, the ΔCT [1, 50] was 0.5% and the ΔCT [1, 51] was 2.0%. The ΔCT [1, 52] was −0.2%, the ΔCT [1, 53] was −0.7% and the “CT cold test germination rate, 7 days” value [1, 34] was 97.0%. For the same compound, the “CT cold test germination rate, 7 days” value [1, 35] was 96.6%, the “CT cold test germination rate, 7 days” value [1, 36] was 97.7% and the “CT cold test germination rate, 7 days” value [1, 37] was 95.5%. The “CT cold test germination rate, 7 days” value [1, 38] was 96.3%, the “CT cold test germination rate, 7 days” value [1, 39] was 94.8% and the “CT cold test germination rate, 7 days” value [1, 40] was 93.3%. The “CT cold test germination rate, 7 days” value [1, 41] was 96.3%, the “CT cold test germination rate, 7 days” value [1, 42] was 91.8% and the “CT cold test germination rate, 7 days” value [1, 43] was 93.5%. For the same compound, the “CT cold test germination rate, 7 days” value [1, 44] was 99.0%, the “CT cold test germination rate, 7 days” value [1, 45] was 98.8% and the “CT cold test germination rate, 7 days” value [1, 46] was 97.5%. For the same compound, the “CT cold test germination rate, 7 days” value [1, 47] was 97.8%, the “CT cold test germination rate, 7 days” value [1, 48] was 99.0% and the “CT cold test germination rate, 7 days” value [1, 49] was 97.3%. The “CT cold test germination rate, 7 days” value [1, 50] was 97.8%, the “CT cold test germination rate, 7 days” value [1, 51] was 99.3% and the “CT cold test germination rate, 7 days” value [1, 52] was 97.0%. The “CT cold test germination rate, 7 days” value [1, 53] was 96.5%, the “concentration of Bitrex in kernels” value ([2]; hybrid rye) was “up to 460,000 ng/g” and the “Mean Bitrex concentration” value ([2]; hybrid rye seedlings 3 weeks after sowing, root, application B: KintoPlus 150 ml/100 kg seeds and Bitrex 150 g/100 kg seeds) was 21169.7 ng/g and 25378.0 ng/g and 18336.0 ng/g and 15826.3 ng/g. For the same compound, the “Mean Bitrex concentration” value ([2]; hybrid rye, kernel, application A: KintoPlus 150 ml/100 kg seeds and Bitrex 75 g/100 kg seeds) was 460473.8 ng/g and the “effect on development of biomass, seed damages and seedling damages” value [3] was “positive effect”.
